{"source": "paper PMC8072580", "about": "“Predicting Pharmacokinetic Properties of Potential Anticancer Agents via Their Chromatographic Behavior on Different Reversed Phase Materials” (International Journal of Molecular Sciences, 2021)", "key": {"Danio rerio": {"test_system": "Danio rerio", "set-up": "method as in PMID 33390035", "conditions": "cited from earlier work"}, "[1]": {"set-up": "method as in PMID 31864156", "conditions": "end-capped ODS column, aqueous acetonitrile; cited from earlier work"}, "human cancer cells": {"test_system": "human cancer cells", "set-up": "method as in PMID 31864156, PMID 16545495, PMID 25528370", "conditions": "cited from earlier work"}, "[2]": {"assay": "Micellar liquid chromatography (MLC), ODS-2 column, Brij 35 effluent: chromatographic lipophilicity", "type": "physicochemical", "conditions": "pH 7.4, ODS-2 column, 25 °C", "excerpt": "There are several theories that describe the effect of the concentration of the surfactant in the effluent on the retention of the solute in MLC [23]. The following Foley’s equation is best known in lipophilicity studies:(2) 1/k=1/km+KAM/km[M] where [M] is the total concentration of the surfactant in the mobile phase minus CMC; KAM is the constant that describes solute-micelle binding; and km is the solute retention parameter at the micellar concentration of zero, i.e., when the concentration of the surfactant monomer is equal to CMC. The KAM and km parameters can be evaluated from the slope and intercept of the experimental 1/k vs. [M] relationships.\nEquation (2) describes a linear dependence between decreasing retention and increasing micelle concentration. This equation is valid for aqueous solutions of surfactant or mobile phases with the same concentrations of the organic modifier. The micellar retention parameter, log km, is considered analogous to the log kw parameter evaluated in RPLC. According to the information presented above, this parameter is considered to be a lipophilicity descriptor, and Equation (2) is a simple way to indirectly determine the lipophilic properties of compounds. It is postulated that retention in micellar chromatography depends on hydrophobic (lipophilic), electronic, and steric features of the compounds in a similar way as has been noted concerning pharmacokinetic phenomena. The additional similarity results from the fact that the phospholipids, cholesterol, fatty acids, and triglycerides included in the extracellular and intracellular fluids also form micelles with proteins.\nIn our investigations, the micellar retention factors were used to calculate the log km parameters using Equation (2) (Table 2). For all of the compounds 1-19, the relationships of 1/k vs. [M] were obtained with very good linearity, confirming that Foley’s equation correctly describes the effect of the concentration of the surfactant in the effluent on the retention of the solute. In our studies, the micellar log km parameters for three pharmacologically active sets of compounds 1-6, 7-14, and 15-19 and the log k factors for solutes 15-19 obtained on IAM and end-capped ODS stationary phases were determined experimentally. All these retention factors, together with the log kw values for compounds 1-14 obtained in our earlier investigations on IAM and end-capped ODS stationary phases, were used as lipophilicity descriptors in the QSARs methodology to predict the pharmacokinetic descriptors of the compounds that were tested.\nShimadzu Vp (Shimadzu, Izabelin, Polska) liquid chromatographic system was used in HPLC measurements. It was equipped with an LC 10AT pump, SPD 10A UV–Vis detector, SCL 10A system controller, CTO-10 AS chromatographic oven, and Rheodyne injector valve with a 20 μL loop. As the stationary phases, 3 different revered-phase materials were applied: Spherisorb ODS-2 column, 125 × 4 mm i.d., 5 μm (Merck, Lublin, Poland), Regis IAM.PC.DD2 column, 100 × 4.6 mm i.d., 10 μm (Morton Grove, Illinois, USA), and Purosphere RP-18e column, 125 × 4 mm i.d., 5 μm (Merck, Lublin, Poland).\nIn the MLC technique with an ODS-2 column, buffered Brij 35 mixtures (0.15; 0.125, 0.10, and 0.075 mol/L) with 7% (v/v) addition of isopropanol were used as mobile phases. The buffer was prepared from 0.01 mol/L solutions of Na2HPO4 and citric acid, and the pH 7.4 value was fixed before mixing with an organic modifier. The flow rate was 1 mL/min. Buffered acetonitrile mixtures were used as effluents with the IAM column. Acetonitrile concentration, expressed as a volume fraction, was changed in the range of 0.2–0.5, with the constant step of 0.1. The flow rate was 1.3 mL/min. Acetonitrile concentration was changed in the range of 0.3–0.6 with the RP-18e column, with the constant step of 0.1 and flow rate of 0.1 mL/min. As solutes tested there were used 19 newly designed structurally related compounds. […]"}, "[3]": {"set-up": "method as in PMID 31864156", "conditions": "IAM.PC.DD2 column, buffered acetonitrile; cited from earlier work"}}}
{"smiles": "Cc1ccccc1N1CCn2c1nnc(C(F)(F)F)c2=O", "note": "[Compound 8]", "values": [{"measurement": "safety for early life stages of Danio rerio compared with pemetrexed", "setting": "Danio rerio", "value": "safer for the early life stages of Danio rerio than pemetrexed"}, {"measurement": "log kw,ODS", "setting": "[1]", "value": "1.81 [19]"}, {"measurement": "antiproliferative effects in cancer cells compared with normal cells", "setting": "human cancer cells", "value": "clearly higher antiproliferative effects in cancer cells than in normal cells"}, {"measurement": "k (MLC retention factor)", "setting": "[2]; 0.075 M Brij 35, 7% isopropanol", "value": 6.50}, {"measurement": "k (MLC retention factor)", "setting": "[2]; 0.1 M Brij 35, 7% isopropanol", "value": 5.97}, {"measurement": "k (MLC retention factor)", "setting": "[2]; 0.125 M Brij 35, 7% isopropanol", "value": 5.52}, {"measurement": "k (MLC retention factor)", "setting": "[2]; 0.15 M Brij 35, 7% isopropanol", "value": 5.28}, {"measurement": "log kw,IAM", "setting": "[3]", "value": "0.76 [19]"}]}
